Laboratory results from patent US5696151A, “Compounds useful for the inhibition of the replication of HIV-1 and HIV-1 mutants” (priority 1995, dated 1997).
In brackets after ≈: the same amount, converted by molar mass.

Legend:
Assay type in all cases: cell-based
HIV-1(IIIB) = assay: Inhibition of HIV-1 induced syncytium formation in CEM cells, wild type; settings: Table 2B, WT = HIV-1(IIIB), day 4, averages of 2 to 3 independent experiments; for EC50: Human immunodeficiency virus 1, IIIB, CCRF-CEM, 96 h, read-out: Antiviral Activity of Comparative Compounds EC50, WT
In short: (§1)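 Syncytium inhibition assay in CEM cells infected with HIV-1(IIIB) or RT mutants, compound tested in 5-fold dilutions, scored by microscopy on day 4.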

HIV-1/100-Ile = assay: Inhibition of HIV-1 induced syncytium formation in CEM cells, RT mutant 100-Ile; settings: Table 2B, day 4, averages of 2 to 3 independent experiments; for EC50: Human immunodeficiency virus 1, CCRF-CEM, 96 h, read-out: Antiviral Activity of Comparative Compounds EC50, 100-Ile
In short: as §1

HIV-1/103-Asn = assay: Inhibition of HIV-1 induced syncytium formation in CEM cells, RT mutant 103-Asn; settings: Human immunodeficiency virus 1, CCRF-CEM, 96 h, Table 2B, day 4, averages of 2 to 3 independent experiments, read-out: Antiviral Activity of Comparative Compounds EC50, 103-Asn
From the text: (§2) CEM cells were obtained from the American Tissue Cell Culture Collection (Rockville, Md.). HIV-1(IIIB) was originally obtained from the culture supernatant of persistently HIV-1-infected H9 cells and was provided by R. C. Gallo and M. Popovic (National Cancer Institute, National Institutes of Health, Bethesda, Md.). […] 67: 5353-5359 (1993); HIV-1/Lys-138 ("Lys-138") was selected for resistance against TSAO-m^3T as described in Balzarini et al, Virology 192: 246-253 (1993) and Balzarini et al, Proc. Nat. Acad. Sci. USA 90: 6952-6956 (1993); HIV-1/181-Cys ("181-Cys") was selected for resistance against pyridinone L-697,661 as described in Balzarini et al, Virology 192: 246-253 (1993); and HIV-1/188-His ("188-His") was selected for resistance against HEPT as described in Balzarini et al, Mol. Pharmocol. 44: 694-701 (1993). 188-His was then further converted to HIV-1/188-Leu "188-Leu") upon further passage in cell culture in the absence of the HEPT.
(§3) CEM cells were suspended at ≈300,000 cells per ml of culture medium and infected with approximately 100 CCID50 (CCID50 being the 50% cell culture infective dose) of HIV-1(IIIB) or one of the HIV-1 RT mutant strains described above. Then 100 μl of the infected cell suspensions was added to 200 μl microtiter plate wells containing 100 μl of appropriate serial (5-fold) dilutions of the test compounds. The inhibitory effect of the test compounds on HIV-1 induced syncytium formation in CEM cells was examined microscopically on day 4 post infection.

HIV-1/106-Ala = assay: Inhibition of HIV-1 induced syncytium formation in CEM cells, RT mutant 106-Ala; settings: Table 2B, day 4, averages of 2 to 3 independent experiments; for EC50: Human immunodeficiency virus 1, CCRF-CEM, 96 h, read-out: Antiviral Activity of Comparative Compounds EC50, 106-Ala
In short: as §1

HIV-1/Lys-138 = assay: Inhibition of HIV-1 induced syncytium formation in CEM cells, RT mutant 138-Lys; settings: Table 2B, day 4, averages of 2 to 3 independent experiments; for EC50: Human immunodeficiency virus 1, CCRF-CEM, 96 h, read-out: Antiviral Activity of Comparative Compounds EC50, 138-Lys
In short: as §1

HIV-1/181-Cys = assay: Inhibition of HIV-1 induced syncytium formation in CEM cells, RT mutant 181-Cys; settings: Table 2B, day 4, averages of 2 to 3 independent experiments; for EC50: Human immunodeficiency virus 1, CCRF-CEM, 96 h, read-out: Antiviral Activity of Comparative Compounds EC50, 181-Cys
In short: as §1

HIV-1/188-Leu = assay: Inhibition of HIV-1 induced syncytium formation in CEM cells, RT mutant 188-Leu; settings: Human immunodeficiency virus 1, CCRF-CEM, 96 h, Table 2B, day 4, averages of 2 to 3 independent experiments, read-out: Antiviral Activity of Comparative Compounds EC50, 188-Leu
From the text: as §2, §3

in vitro = settings: human, cem cells, CC50 (50% cytostatic concentration), Table 2B; CEM cell proliferation; averages of 2 to 3 independent experiments
In short: (§4)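 In CEM cells, the cytostatic value is the compound concentration giving 50% inhibition of cell proliferation. Parallel work used HIV-1(IIIB) and culture-selected resistant strains Lys-138, 181-Cys, 188-His and 188-Leu.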

CEM cells = assay: in vitro; settings: Table 2B; CEM cell proliferation; averages of 2 to 3 independent experiments
In short: as §4

Structure (SMILES) | EC50 (HIV-1(IIIB)) [µg/mL] | EC50 (HIV-1/100-Ile) [µg/mL] | EC50 (HIV-1/103-Asn) [µg/mL] | EC50 (HIV-1/106-Ala) [µg/mL] | EC50 (HIV-1/Lys-138) [µg/mL] | EC50 (HIV-1/181-Cys) [µg/mL] | EC50 (HIV-1/188-Leu) [µg/mL] | CC50 (in vitro) [µg/mL] | Antiviral Activity of Comparative Compounds EC50, WT (HIV-1(IIIB)) [µg/mL] | Antiviral Activity of Comparative Compounds EC50, 100-Ile (HIV-1/100-Ile) [µg/mL] | Antiviral Activity of Comparative Compounds EC50, 106-Ala (HIV-1/106-Ala) [µg/mL] | Antiviral Activity of Comparative Compounds EC50, 138-Lys (HIV-1/Lys-138) [µg/mL] | Antiviral Activity of Comparative Compounds EC50, 181-Cys (HIV-1/181-Cys) [µg/mL] | CC50 (50% cytostatic concentration) (CEM cells) [µg/mL]
CC=CCSc1cc(NC(=S)c2ccsc2C)ccc1Cl [Compound 8] | 0.0055 (≈ 0.0155 µM) | 0.032 (≈ 0.0904 µM) | 0.023 (≈ 0.065 µM) | 0.023 (≈ 0.065 µM) | 0.025 (≈ 0.0706 µM) | 0.025 (≈ 0.0706 µM) | > 2 | 5.1 (≈ 14.4 µM) | – | – | – | – | – | –
Cc1c(C(=S)Nc2ccc(Cl)c(C=NOC(C)(C)C)c2)ccn1C [Compound 10] | 0.02 (≈ 0.055 µM) | 0.65 (≈ 1.79 µM) | 1.27 (≈ 3.49 µM) | 0.23 (≈ 0.632 µM) | 0.09 (≈ 0.247 µM) | 0.033 (≈ 0.0907 µM) | > 2 | 6.5 (≈ 17.9 µM) | – | – | – | – | – | –
Cc1sccc1C(=S)Nc1ccc(Cl)c(C(=O)OC2CCCCC2)c1 [Compound 59] | – | – | – | – | – | – | – | – | 0.09 | 0.65 | 0.60 | 0.40 | 0.35 | 15 (≈ 38.1 µM)
CC1=C(C(=S)Nc2ccc(Cl)c(C=NOC(C)(C)C)c2)CCO1 [Compound 7] | 0.0065 (≈ 0.0184 µM) | 0.055 (≈ 0.156 µM) | 0.058 (≈ 0.164 µM) | 0.03 (≈ 0.085 µM) | 0.04 (≈ 0.113 µM) | 0.045 (≈ 0.128 µM) | 1.2 (≈ 3.4 µM) | 11 (≈ 31.2 µM) | – | – | – | – | – | –
CC=CCOc1cc(NC(=O)c2ccoc2C)ccc1Cl [Compound 40] | 0.24 (≈ 0.785 µM) | 1.4 (≈ 4.58 µM) | ≥ 2 | > 2 | 1.2 (≈ 3.92 µM) | > 2 | > 2 | 5.8 (≈ 19 µM) | – | – | – | – | – | –
Cc1sccc1C(=S)Nc1ccc(Cl)c(C(=O)OC(C(C)C)C(C)C)c1 [Compound 21] | 0.008 (≈ 0.0195 µM) | 0.3 (≈ 0.732 µM) | 0.61 (≈ 1.49 µM) | 0.23 (≈ 0.561 µM) | 0.11 (≈ 0.268 µM) | 0.17 (≈ 0.415 µM) | > 2 | 6 (≈ 14.6 µM) | – | – | – | – | – | –
CC=CCSc1cc(NC(=O)c2ccsc2C)ccc1Cl [Compound 34] | 0.08 (≈ 0.237 µM) | 0.65 (≈ 1.92 µM) | 0.8 (≈ 2.37 µM) | 0.28 (≈ 0.829 µM) | 0.5 (≈ 1.48 µM) | 1.2 (≈ 3.55 µM) | > 2 | 4.8 (≈ 14.2 µM) | – | – | – | – | – | –
CC1=C(C(=O)Nc2ccc(Cl)c(OCCC(C)C)c2)SCCO1 [Compound 41] | 0.28 (≈ 0.787 µM) | ≥ 2 | ≥ 2 | ≥ 2 | ≥ 2 | ≥ 2 | > 2 | > 100 | – | – | – | – | – | –
